Results from US7498358B2, “Human ADAM-10 inhibitors” (Exelixis, Inc., priority 2001, dated 2009).
Where two headings read alike, the source gives them in different places.

Columns and labels:
various metalloproteases [1] = assay: in vitro inhibition of various metalloproteases (Table 4); format: biochemical; settings: Table 4, in vitro
Protocol: (§1) Inhibition is indicated as IC50 with the following key: A=IC50 less than 50 nM, B=IC50 greater than 50 nM, but less than 1000 nM, C=IC50 greater than […], but less than 20,000 nM, and D=IC50 greater than 20,000 nM.

hADAM-10 = target: T1, hADAM-10 (UniProt O14672); assay: ADAM-10 enzyme assay: cleavage of fluorogenic 10-residue peptide (DABCYL/EDANS); format: biochemical, human; settings: Table 4, in vitro
T1 sequence (O14672 1-748): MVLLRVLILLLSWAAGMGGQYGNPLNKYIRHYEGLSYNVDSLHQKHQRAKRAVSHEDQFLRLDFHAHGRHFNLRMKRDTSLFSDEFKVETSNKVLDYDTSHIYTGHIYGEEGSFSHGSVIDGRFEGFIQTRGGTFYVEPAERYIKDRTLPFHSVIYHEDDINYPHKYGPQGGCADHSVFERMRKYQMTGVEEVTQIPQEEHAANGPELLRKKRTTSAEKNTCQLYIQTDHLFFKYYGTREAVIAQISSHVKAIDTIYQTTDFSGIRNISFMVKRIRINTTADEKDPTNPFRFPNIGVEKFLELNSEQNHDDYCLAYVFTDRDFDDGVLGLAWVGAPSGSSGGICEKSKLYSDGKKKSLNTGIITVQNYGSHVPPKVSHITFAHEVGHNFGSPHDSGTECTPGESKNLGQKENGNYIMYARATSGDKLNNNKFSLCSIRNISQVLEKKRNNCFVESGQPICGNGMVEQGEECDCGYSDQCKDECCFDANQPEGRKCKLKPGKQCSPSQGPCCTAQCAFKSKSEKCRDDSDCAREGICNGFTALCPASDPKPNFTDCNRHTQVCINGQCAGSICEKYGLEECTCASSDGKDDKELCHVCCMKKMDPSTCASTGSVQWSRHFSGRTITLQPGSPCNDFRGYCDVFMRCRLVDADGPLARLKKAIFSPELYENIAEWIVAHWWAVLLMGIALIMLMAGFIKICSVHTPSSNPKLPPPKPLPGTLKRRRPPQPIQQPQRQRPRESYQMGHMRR
Protocol: mADAM-10 or hADAM-10 activity was measured as the ability to cleave a 10-residue peptide (DABCYL-Leu-Leu-Ala-Gln-Lys-*-Leu-Arg-Ser-Ser-Arg-EDANS). […] Enzyme was diluted to a final active concentration of 5 nM in Buffer A (50 mM HEPES 8.0, 100 mM NaCl, 1 mM CaCl2 and 0.01% NP-40). Serial dilutions for compounds were performed ranging from 100 uM to 0.5 nM using a Beckman Biomek 2000 in polypropylene plates (Greiner). 20 μl of enzyme solution was added to 10 μl of compound in buffer A, and allowed to incubate for 15 min in 384 well black, Greiner, microtiter plates (#781076). 20 μl of substrate (12.5 uM in Buffer A) was then added, resulting in final reaction conditions of 2 nM ADAM-10, 5 μM substrate, and compound concentrations ranging from 20 uM to 0.1 nM. The reaction was incubated for 2 hr at RT, and fluorescence was measured at Ex355, Em460 on a Wallac Victor 2 fluorescence reader. For final analysis of potent inhibitors, a similar reaction was set up with a final active ADAM-10 concentration of 0.1 nM. This reaction was incubated for 16 hr at RT and fluorescence was read using identical conditions.
as §1

various metalloproteases [2] = target: T2, various metalloproteases (Homo sapiens, UniProt P08253); assay: in vitro inhibition of various metalloproteases (Table 4); format: biochemical; settings: MMP2; Table 4, in vitro
T2 sequence (P08253 110-660): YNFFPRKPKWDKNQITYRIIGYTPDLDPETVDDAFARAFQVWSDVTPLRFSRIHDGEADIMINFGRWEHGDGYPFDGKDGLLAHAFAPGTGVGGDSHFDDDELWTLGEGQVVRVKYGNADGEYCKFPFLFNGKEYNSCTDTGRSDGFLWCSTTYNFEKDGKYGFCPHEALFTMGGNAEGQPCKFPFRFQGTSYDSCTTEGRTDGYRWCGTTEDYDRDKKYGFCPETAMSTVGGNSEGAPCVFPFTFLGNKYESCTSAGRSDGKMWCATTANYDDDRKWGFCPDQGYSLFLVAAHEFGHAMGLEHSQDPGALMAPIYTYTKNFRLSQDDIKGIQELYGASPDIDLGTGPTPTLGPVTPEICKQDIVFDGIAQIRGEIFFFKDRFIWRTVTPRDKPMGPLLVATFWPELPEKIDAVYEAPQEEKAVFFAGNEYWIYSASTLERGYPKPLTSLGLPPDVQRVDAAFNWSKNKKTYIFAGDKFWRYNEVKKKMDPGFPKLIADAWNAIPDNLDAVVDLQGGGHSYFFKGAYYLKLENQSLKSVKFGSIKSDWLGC
Protocol: as §1

various metalloproteases [3] = target: various metalloproteases (Homo sapiens, UniProt P08254); assay: as above; format: biochemical; settings: MMP3; Table 4, in vitro
Protocol: as §1

various metalloproteases [4] = target: various metalloproteases (Homo sapiens, UniProt P45452); assay: as above; format: biochemical; settings: MMP13; Table 4, in vitro
Protocol: as §1

Sequence of various metalloproteases (Homo sapiens, UniProt P08254) (P08254 100-477): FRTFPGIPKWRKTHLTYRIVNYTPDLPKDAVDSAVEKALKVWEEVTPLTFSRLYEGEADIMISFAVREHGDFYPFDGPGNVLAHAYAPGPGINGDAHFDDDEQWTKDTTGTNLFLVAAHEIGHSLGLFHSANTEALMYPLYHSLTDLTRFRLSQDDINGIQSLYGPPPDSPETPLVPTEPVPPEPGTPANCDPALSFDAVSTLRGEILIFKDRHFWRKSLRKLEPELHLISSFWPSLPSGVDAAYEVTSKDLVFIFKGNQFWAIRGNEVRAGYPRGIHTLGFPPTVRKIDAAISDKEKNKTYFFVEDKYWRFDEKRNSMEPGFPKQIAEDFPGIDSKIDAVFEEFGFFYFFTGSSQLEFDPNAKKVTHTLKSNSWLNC

Compound	IC50 (various metalloproteases [1]; MMP1, read-out: MMP1 IC50)	IC50 (various metalloproteases [1]; MMP2, read-out: MMP2 IC50)	IC50 (various metalloproteases [1]; MMP3, read-out: MMP3 IC50)	IC50 (various metalloproteases [1]; MMP13, read-out: MMP13 IC50)	IC50 (hADAM-10)	IC50 (various metalloproteases [1]; TACE, read-out: TACE IC50)	IC50 (various metalloproteases [1]; MMP8, read-out: MMP8 IC50)	IC50 (various metalloproteases [1]; MMP9, read-out: MMP9 IC50)	IC50 (various metalloproteases [2])	IC50 (various metalloproteases [3])	IC50 (various metalloproteases [4])
3-(1-{(Z)-[(aminocarbonyl)imino][(2-methoxyethyl)amino]methyl}piperidin-4-yl)-N^1-hydroxy-N^2-[(4-phenoxyphenyl)sulfonyl]alaninamide [Compound 44]	< 50 nM	< 50 nM	< 50 nM	< 50 nM	–	–	–	–	–	–	–
N#Cc1ccc(C[C@@H](NS(=O)(=O)c2cc(F)c(Oc3ccc(F)cc3)c(F)c2)C(=O)NO)cc1 [Compound 72, 4-cyano-N^2-({3,5-difluoro-4-[(4-fluorophenyl)oxy]phenyl}sulfonyl)-N^1-hydroxy-D-phenylalaninamide]	50 to 20000 nM	< 50 nM	50 to 1000 nM	< 50 nM	50 to 1000 nM	–	–	–	–	–	–
CC(C)(SCC(=O)N1CCOCC1)[C@@H](NS(=O)(=O)c1cc(F)c(Oc2ccc(Cl)cc2)c(F)c1)C(=O)NO [Compound 91, N^2-({4-[(4-chlorophenyl)oxy]-3,5-difluorophenyl}sulfonyl)-N^1-hydroxy-3-[(2-morpholin-4-yl-2-oxoethyl)thio]-D-valinamide]	–	< 50 nM	–	–	–	–	–	–	–	–	–
O=C(NO)C(NS(=O)(=O)c1ccc(Oc2ccc(F)cc2)cc1)C1CCNCC1 (centres unmarked) [Compound 97, N^2-[({4-[(4-fluorophenyl)oxy]phenyl}sulfonyl)amino]-N^1-hydroxy-2-piperidin-4-ylacetamide]	–	–	< 50 nM	< 50 nM	< 50 nM	–	–	–	–	–	–
Cc1cc(C)cc(Oc2c(F)cc(S(=O)(=O)NC(C(=O)NO)C3CCNCC3)cc2F)c1 (centres unmarked) [Compound 99, N^2-[({4-[(3,5-dimethylphenyl)oxy]-3,5-difluorophenyl}sulfonyl)amino]-N^1-hydroxy-2-piperidin-4-ylacetamide]	–	< 50 nM	< 50 nM	< 50 nM	< 50 nM	–	–	–	–	–	–
Cc1cc(C)cc(Oc2c(F)cc(S(=O)(=O)N[C@@H](CC3CCC(CN)CC3)C(=O)NO)cc2F)c1 (some centres unmarked) [Compound 106, 3-[4-(aminomethyl)cyclohexyl]-N^2-({4-[(3,5-dimethylphenyl)oxy]-3,5-difluorophenyl}sulfonyl)-N^1-hydroxyalaninamide]	–	–	–	–	50 to 20000 nM	–	–	–	–	–	–
N^6-[(E)-(cyanoimino)(propylamino)methyl]-N^1-hydroxy-N^2-[(4-phenoxyphenyl)sulfonyl]-D-lysinamide [Compound 23]	50 to 1000 nM	< 50 nM	< 50 nM	< 50 nM	< 50 nM	< 50 nM	–	–	–	–	–

Results, then the compound that gave them:

IC50 (various metalloproteases [1]; MMP1, read-out: MMP1 IC50)	IC50 (various metalloproteases [1]; MMP2, read-out: MMP2 IC50)	IC50 (various metalloproteases [1]; MMP3, read-out: MMP3 IC50)	IC50 (various metalloproteases [1]; MMP13, read-out: MMP13 IC50)	IC50 (hADAM-10)	IC50 (various metalloproteases [1]; TACE, read-out: TACE IC50)	IC50 (various metalloproteases [1]; MMP8, read-out: MMP8 IC50)	IC50 (various metalloproteases [1]; MMP9, read-out: MMP9 IC50)	IC50 (various metalloproteases [2])	IC50 (various metalloproteases [3])	IC50 (various metalloproteases [4])	Compound
50 to 20000 nM	–	< 50 nM	< 50 nM	< 50 nM	< 50 nM	–	–	–	–	–	3-{1-[(Z)-(cyanoimino)(propylamino)methyl]piperidin-4-yl}-N^1-hydroxy-N^2-[(4-phenoxyphenyl)sulfonyl]alaninamide [Compound 41]
50 to 20000 nM	< 50 nM	50 to 1000 nM	< 50 nM	< 50 nM	50 to 1000 nM	< 50 nM	< 50 nM	–	–	–	N=C(N)NCCC[C@@H](NS(=O)(=O)c1ccc(Oc2ccccc2)cc1)C(=O)NO [Compound 2, N^1-hydroxy-N^2-[(4-phenoxyphenyl)sulfonyl]-D-argininamide]
< 50 nM	< 50 nM	–	–	< 50 nM	50 to 1000 nM	–	–	–	–	–	NCCCC[C@@H](NS(=O)(=O)c1ccc(Oc2ccccc2)cc1)C(=O)NO [Compound 13, N^1-hydroxy-N^2-{[4-(phenyloxy)phenyl]sulfonyl}-D-lysinamide]
50 to 20000 nM	–	50 to 1000 nM	< 50 nM	< 50 nM	–	–	–	–	–	–	N=C(N)NCCC[C@@H](NS(=O)(=O)c1ccc(Oc2ccc(F)cc2)nc1)C(=O)NO [Compound 68, N^2-({6-[(4-fluorophenyl)oxy]pyridin-3-yl}sulfonyl)-N^1-hydxoxy-D-argininamide]
–	< 50 nM	50 to 20000 nM	50 to 1000 nM	< 50 nM	–	–	–	–	–	–	CN(C)CC[C@@H](NS(=O)(=O)c1cc(F)c(Oc2ccc(Cl)cc2)c(F)c1)C(=O)NO [Compound 89, (2R)-N^2-[({4-[(4-chlorophenyl)oxy]-3,5-difluorophenyl}sulfonyl)amino]-4-(dimethylamino)-N^1-hydroxybutanamide]
–	–	–	–	< 50 nM	–	–	–	< 50 nM	50 to 1000 nM	< 50 nM	NCC1CCC(C[C@H](NS(=O)(=O)c2ccc(-c3cccc(F)c3)nc2)C(=O)NO)CC1 (some centres unmarked) [Compound 105, 3-[4-(aminomethyl)cyclohexyl]-N^2-{[6-(3-fluorophenyl)pyridin-3-yl]sulfonyl}-N^1-hydroxyalaninamide]
